Experiments:
[1] = test system: G. vaginalis ATCC 14019; assay: MIC broth microdilution (Example 3); type: cell-based, Gardnerella vaginalis; settings: planktonic, sBHI, anaerobic
Experimental: (§1) G. vaginalis ATCC 14019 strain was grown overnight in Brain Heart Infusion broth (Difco, Sparks, Md.) supplemented with 3% horse serum (sBHI) (JRH Biosciences, KS), while BHI supplemented with 1% glucose (BHIG) was used for biofilm formation assays. Each experiment using G. vaginalis was performed anaerobically (10% hydrogen, 5% carbon dioxide, and 85% nitrogen) within anaerobic glove boxes (Coy Laboratory Products, Inc., Grass Lake, Mich., USA). Three species of vaginal Lactobacillus were used in this study to evaluate the possible harmful effects of CAms on beneficial bacteria: Lactobacillus plantarum ATCC 39268, Lactobacillus rhamnosus 160 (provided by Dr. Aroutcheva, Rush University Medical Center) and Lactobacillus gasseri ATCC 33323; all were grown for 18-24 h in DeMan, Rogosa and Sharpe broth (MRS Difco B D, Franklin Lakes, N.J., USA) under aerobic conditions at 37° C. For lactobacilli biofilm formation, MRS broth supplemented with 1% glucose and 2% sucrose (Fisher Scientific, Waltham, Mass., USA) was utilized.
To prepare a stock solution, the CAm compounds were dissolved in ddH2O and incubated at 37° C. with shaking at 250 rpm for 10 min. Then, the solution was serially diluted twofold with sBHI broth to determine the MIC and with BHIG broth to identify the MIC-B/MBC-B against planktonic and biofilm cells, respectively.
According to Clinical and Laboratory Standards Institute (CLSI 2010), the MIC is defined as the lowest concentration of antimicrobial compound producing no visible growth or complete inhibition of bacterial growth during 24 h. To determine MIC values, the broth microdilution assay was performed according to Algburi et al. (Algburi et al., 2015. Path Dis 73(5)) with minor modifications. Briefly, the overnight-grown cells were diluted with their suitable culture medium to approach ˜10^6 CFU/ml. The number of bacterial cells was identified using spot plate method (Turovskiy et al., 2012. Infect Dis Obstet Gynecol 2012:284762). […]

[2] = test system: G. vaginalis biofilm formation; assay: Minimum biofilm inhibition concentration (MIC-B), crystal violet; type: cell-based, Gardnerella vaginalis; settings: 48 h, vs untreated control, FIG. 7
Experimental: The MIC-B50 of an antimicrobial is defined as the lowest concentration of the antimicrobial that inhibits 50% of treated biofilm compared to the untreated one (control), while MIC-B90 was defined as the minimum biofilm inhibitory concentration that inhibits 90% (Sandoe et al., 2006. J Antimicrob Chemother 57:767-770). G. vaginalis cells were grown overnight in sBHI broth anaerobically at 37° C. The overnight culture was diluted in BHIG broth 1:100 (v:v) to achieve ˜10^6 CFU/ml for the biofilm inhibition assay. The CAms were diluted twofold with BHIG into a 96-well tissue culture microplate (Falcon, Corning Incorporated, Corning, N.Y., USA) with a final volume of 100 μl in each well. Aliquots of 100 μl of diluted cell suspensions at 10^6 CFU/ml were added separately to different concentrations of CAms in a 96-well tissue culture microplate. The microplate was incubated for 48 h at 37° C. under anaerobic conditions. After incubation, the number of non-adherent bacterial cells was counted using a spot plate method and compared with the number of cells of the non-treated control. Then, the intact biofilm was stained with 0.1% crystal violet.
This method was performed as described by Borucki et al. with minor modifications (Borucki et al., 2003. Appl Environ Microbiol 69:7336-7342). Briefly, after counting the non-adherent cells, the biofilm was fixed at 60° C. for 60 min. in an inverted position using an incubator (New Brunswick Scientific Co., Inc., NJ, USA). In each well, 125 μl of 0.1% crystal violet was added and left at room temperature for 20 min. Each well was then rinsed three to four times with 200 μl of ddH2O and left for 15 min. to dry at room temperature. To solubilize the biofilm-stained CV, 200 μl of 95% ethanol in water was added and the microplate was incubated at 4° C. for 30 min. One hundred microliter samples of solubilized CV were transferred to a new flat-bottomed 96-well microplate. The absorbance of each sample was measured using a plate reader at 595 nm (Model 550, Bio-Rad Laboratories, Hercules, Calif., USA).

[3] = test system: L. gasseri biofilm; assay: Minimum biofilm bactericidal concentration (MBC-B); type: cell-based, Lactobacillus gasseri; settings: pre-formed biofilm, ≥3 log reduction
Experimental: as §1
This assay was performed according to Algburi et al. (Algburi et al., 2015. Path Dis 73(5)) with minor modifications: the overnight-grown G. vaginalis was diluted to approximately 10^7 CFU/ml. For the biofilm formation assay, aliquots of 200 μl were added into a 96-well tissue culture microplate, sealed by amplification tape (Nalge Nunc International, Rochester, N.Y., USA) and incubated for 24-36 h at 37° C. After incubation, the planktonic cells were removed by gently washing the biofilm twice with 200 μl of fresh broth. The biofilm was then treated with 200 μl of a predetermined concentration of the tested compound. The microplate was incubated for 24 h at 37° C. under anaerobic conditions. After incubation, the antimicrobials (supernatant) were discarded and the biofilm was washed twice with fresh BHIG broth. The biofilm was then disrupted by vigorous pipetting, in order to determine the number of biofilm-associated cells using the spot plate method.

SMILES | MIC G. vaginalis [1] [µM] | MIC-B: concentration preventing 50% or >50% of biofilm formation [2] [µM] | MBC-B L. gasseri [3] [µM]
CCCCCCCCCCOC(C(=O)NCCN)C(OCCCCCCCCCC)C(=O)NCCN.Cl.Cl (stereo not drawn) [5b] | 1.1 | 1.6 | >850
CCCCCCCC(=O)OC(C(=O)NCCN)C(OC(=O)CCCCCCC)C(=O)NCCN.Cl.Cl (stereo not drawn) [8a] | 24.4 | 7.2 | >890
CCCCCCCCCC(=O)OC(C(=O)NCCN)C(OC(=O)CCCCCCCCC)C(=O)NCCN.Cl.Cl (stereo not drawn) [8b] | 2.3 | 3.2 | 810

Source: patent publication US10759740B2, “Antibacterial agents” (Rutgers, The State University of New Jersey, priority 2016, dated 2020)
